The text below walks through data of patent publication US4420639A, “Aromatic compounds” (Beecham Group Limited, priority 1973, dated 1983).

The test system of series [1] is stomach / gastro-intestinal tract. Briefly: Gastro-intestinal irritancy at or near the therapeutic dose (general statement). It counts as in vivo.
Another series deals with oestrogenicity. Nature of the series: Oestrogenic effects (general statement). It counts as in vivo. The note with it: at the therapeutic dose.
The subject of series [2] is Carrageenin Induced Oedema. Briefly: Carrageenin Induced Oedema in Rats. It counts as in vivo, rat. The note with it: 5, 10, 35 and 70 mg/kg p.o. The text has this:
a. Carrageenin Induced Oedema in Rats.

In series [3] the test system is Cotton Pellet Induced Granuloma. Briefly: Cotton Pellet Induced Granuloma in Rats. It counts as in vivo, rat. The note with it: 50 mg/kg p.o. dosed from day 0 to 5 days. Here is the method:
c. Cotton Pellet Induced Granuloma in Rats. Consistent activity (reducing induced granuloma by more than 30%) has been observed at 50 mg/kg p.o. dosed from day 0 to 5 days.

In another series the test system is Adjuvant arthritis. Nature of the series: Adjurant Arthritis in Rats. It counts as in vivo, rat. The note with it: daily administration of 60 mg/kg p.o. The procedure: d. Adjurant Arthritis in Rats.
Adjuvant arthritis is reduced in rats by the daily administration of doses of 60 mg/kg p.o.

Series [4] has as its system cultured mouse peritoneal macrophages. Nature of the series: Macrophage Plasmongen Activator Release test. It counts as cell-based. The note with it: 1 mg/ml.
Series [5] concerns pyresis induced by Shigella endotoxin. Nature of the series: Anti-pyretic Effect in Rabbits. The note with it: doses down to 100 mg/kg p.o.; intravenous Shigella endotoxin. It counts as in vivo, rabbit. The text has this: g. Anti-pyretic Effect in Rabbits.
Another series deals with Adrenal/Pitutary Axis. Briefly: Interactions with the Adrenal/Pitutary Axis. It counts as in vivo. The note with it: five days at 140 mg/kg p.o./day; response to ACTH or ether stress. The text has this:
h. Interactions with the Adrenal/Pitutary Axis.

The subject of series [6] is ovariectomised rats, uterine weight. Nature of the series: Oestrogenic Test in Rats (uterine weight). It counts as in vivo, rat. The note with it: 200 mg/kg p.o. and 600 mg/kg p.o. for 4 days. The source says:
i. Oestrogenic Test in Rats.

The test system of series [7] is uterus / endometrium (Clauberg test). Nature of the series: Gestagenic Activity in Rabbits (Clauberg test). The note with it: 200 mg/kg p.o. for 4 days. It counts as in vivo, rabbit. The text has this: k. Gestagenic Activity in Rabbits.
A further series deals with pyloric ligated rat. Briefly: Gastric Damage in Pyloric Ligated Rats. It counts as in vivo. The note with it: up to 200 mg/kg intra-duadenally. The source says: l. Gastric Damage in Pyloric Ligated Rats.
Series [8] deals with gastric erosions or ulceration. Briefly: Ulcerogenic Activity in Rats. It counts as in vivo, rat. The note with it: 250 mg/kg p.o. or 500 mg/kg p.o. The source says: m. Ulcerogenic Activity in Rats.

With `COc1ccc2cc(CCC(C)=O)ccc2c1` [4-(6'-methoxy-2'-naphthyl)butan-2-one], the “irritation of the stomach / gastric-irritant effects” value in [1] is “not causing either oestrogenic effects or pronounced gastric-irritant effects”. Besides, the oestrogenic effects result with oestrogenicity was “not causing either oestrogenic effects”. The “reduction in induced oedema volume” value in [2] is “significant reduction in induced oedema volume”. In addition, in series [3], the “changes in body weight or in the weight of the spleen, thymus, kidney, liver or adrenal glands” value is on record as “not accompanied by marked changes” and the “reduction of induced granuloma” value is on record as “more than 30%”. Besides, the “reduction of adjuvant arthritis” value in the series on Adjuvant arthritis is listed as “reduced”. Besides, the “inhibition of the release of plasmogen activator” value in [4] is “slight inhibition”. In addition, the reduction of pyresis entry in series [5] is “reduced pyresis”. Also, the “interference with release of corticosteroids from the adrenal gland” value in the series with Adrenal/Pitutary Axis is “does not interfere with release of corticosteroids”. Further, the “increase in uterine weight” value in [6] is on record as “did not result in any increase in uterine weight”. Further, the “uterine hypertrophy or progestational changes in the endometrium” value in series [7] is reported as “did not result in uterine hypertrophy or progestational changes in the endometrium”. In the series with pyloric ligated rat, the overt gastric damage result is given as “nor did overt gastric damage result” and the “systemically mediated effect on the volume of gastric secretion” value is recorded as “have not been found to have a systemically mediated effect on the volume of gastric secretion”. The “gastric erosions at longer contact times” value in series [8] (longer contact times than 4 hours) was “did lead in some cases to some degree of erosions”. In addition, the “gastric erosions or ulceration” value in series [8] (starved 18 hours, examined 1 or 4 hours after dosing) is “did not give rise to gastric erosions or ulceration”.
